The subject of one data set is p-JNK. Put plainly: Inhibition test of the phosphorylation of MAPK, western blot. It counts as cell-based, human. To be noted: 5 μM; UVB 40 mJ/cm^2. The procedure:
(§1) It has been known that the skin photo-aging caused by UV rays will increase the content of MMPs in the dermis by the phosphorylation of MAPK. In this experiment, the effect of caffeamide derivative on the phosphorylation of MAPK in the cells was analyzed by western blotting.
(§2) After being treated with the compound of formula (2) prepared in Example 1, the protein expression levels of the MAPKs induced by UVB were inhibited in a concentration dependent way. Specifically, when the concentration of the compound of formula (2) was 10 μM, the expression level of P-ERK was 1.1 times as compared to that of the untreated cells. When the concentration of the compound of formula (2) was 5 μM, the expression levels of p-JNK and p-p38 were both 1.1 times as compared to that of the untreated cells.
A general note: Immunoblotting shows a protein as a band on a membrane.

A further data set relates to p-ERK. The data set is described as above. It counts as cell-based, human. To be noted: 10 μM; UVB 40 mJ/cm^2. How it is done:
as §1, §2

The subject of data set [1] is human fibroblast Hs68 cells. Put plainly: Scavenging test of ROS free radicals in UVB-irradiated cells. The class given is cell-based. To be noted: UVB 80 mJ/cm^2, 24 hours. How it is done:
After incubated in an incubator (37° C., 5% CO2) for 24 hours, the ROS level was examined.

For data set [2], the system named is human fibroblast Hs68 cells. The data set is described as follows: Cellular toxicity evaluation, MTT assay. The class given is cell-based. The following applies: 24 hours. How it is done: MTT (3-(4,5-dimethylthiazol-2-yl)-2,5-diphenyl tetrazolium bromide) assay was used to determine the cellular toxicity of the caffeamide derivatives described herein. First, different concentrations (0 μM to 100 μM) of the compounds of formula (1) or formula (2) prepared in Example 1 of the present invention were added, respectively, into a 96-well microplate which containing human fibroblast Hs68 cells (1×10^4 cells per well). After the cells were incubated in an incubator at 37° C. and 5% CO2 for 24 hours, 15 μl of MTT solution (0.5 mg/ml; dissolved in PBS) was added into the microplate and the human fibroblast Hs68 cells were incubated for 3 hours. Next, 75 μl SDS (sodium dodecyl sulfate) solution (10% SDS was dissolved in 0.01N HCl) was added into the microplate. After the cells were maintained for 24 hours, the absorbances of each well were measured at a wavelength of 570 nm by an enzyme immunoassay analyzer. Finally, the cell survival rate was calculated by the following formula to observe the cellular toxicity of compounds. The results are shown in Table 5, FIG. 10a and FIG. 10b. Cell survival rate(%)=absorbance of the experimental group/absorbance of the control group.
In general terms: Formazan colour is commonly taken as a measure of viable cells.

A further data set deals with T1, tyrosinase (Mus musculus, UniProt P11344).
T1 construct: endogenous in cells; host or cells: B16 cells
T1 sequence (P11344 19-533): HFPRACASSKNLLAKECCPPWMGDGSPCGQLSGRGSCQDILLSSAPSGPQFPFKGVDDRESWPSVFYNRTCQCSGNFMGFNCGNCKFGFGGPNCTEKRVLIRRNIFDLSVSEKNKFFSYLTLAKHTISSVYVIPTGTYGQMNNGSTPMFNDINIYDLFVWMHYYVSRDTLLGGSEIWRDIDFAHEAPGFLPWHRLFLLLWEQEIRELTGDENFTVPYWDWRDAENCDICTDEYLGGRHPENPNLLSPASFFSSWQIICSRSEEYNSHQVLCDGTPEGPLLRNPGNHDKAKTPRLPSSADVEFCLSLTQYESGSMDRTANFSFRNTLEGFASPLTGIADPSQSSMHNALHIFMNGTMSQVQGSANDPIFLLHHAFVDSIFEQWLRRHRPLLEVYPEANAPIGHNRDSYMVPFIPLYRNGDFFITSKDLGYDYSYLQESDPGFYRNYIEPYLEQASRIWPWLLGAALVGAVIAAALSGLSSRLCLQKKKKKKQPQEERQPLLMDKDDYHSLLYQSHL
The data set is described as follows: Activity analysis of tyrosinase in B16 cells. It counts as cell-based. The following applies: 5 μM to 125 μM, 48 hours. How it is done: It has been known that tyrosinase is one of the primary protein participating in melanogenesis. In this experiment, different concentrations (5 μM to 125 μM) of the compounds of formula […] or (2) prepared in Example 1 were used to treat B16 cells (1.5×10^4) for 48 hours, and the activity of tyrosinase was analyzed by western blotting.

For a further data set, the system named is MMP-9. The class given is cell-based, human. The following applies: 10 μM; UVB 40 mJ/cm^2; 48 hours.
The test system of the next data set is MMP-3. Put plainly: MMP expression, western blot, UVB-irradiated Hs68 cells. The class given is cell-based, human. The following applies: 25 μM; UVB 40 mJ/cm^2; 48 hours. How it is done: (§3) Human fibroblast Hs68 cells (5×10^5) (the number of Bioresource Collection and Research Center (BCRC): 60038) were counted and incubated in a culture dish with a diameter of 10 cm (the culture dish components were adjusted by L-glutamine (4 mM) to have 1.5 g/L NaHCO3, 4.5 g/L glucose, and 90% Dulbecco's Modified Eagle's Medium with 10% fetal bovine serum (FBS)). The medium was removed until human fibroblast Hs68 cells grow to a confluence of 80%, and the cells were then washed once with 5 ml PBS (phosphate buffered saline). Then, 3 ml phenol red-free medium which contain different concentrations (0 μM to 25 μM) of the compounds of formula (1) or formula (2) prepared in Example 1 were added into the culture dish. After incubating for 1 hour, the cells were irradiated by UV light (UVB with an intensity of 40 mJ/cm^2) for 15 seconds. Next, the phenol red-free medium which contains different concentrations (0 μM to 25 μM) of the compounds of formula (1) or formula (2) prepared in Example 1 were added into the culture dish sequentially. After incubation in an incubator (37° C., 5% CO2) for 48 hours, the cells were collected.
(§4) The collected cells were treated with a sonication buffer (containing Na3VO4 (100 μM), phenylmethanesulfonyl fluoride (PMSFL, 100 mg/ml), leupeptin (20 mg/ml), Tris-HCl (pH 7.4, 50 μM), NaCl (37.5 μM), DL-dithiothretiol (250 μM), sodium deoxycholate (3 μM), EDTA (1 μM), SDS (0.1%), and Igepal™ CA-630 (Sigma-Aldrich, 1%)) and sonicated to rupture the cell membranes. Then, the organelles and fragments of the cells were precipitated by centrifugation, and the supernatant, which contains proteins in the cytosol was collected. Next, the obtained proteins were separated by SDS-PAGE, and transferred to a membrane by western blotting. Antibodies were used to recognize the targeted proteins, such as MMP-1, MMP-3, MMP-9, and actin. The images were recorded by a Luminescent imagination technology (LAS-4000, FUJIFILM), and the variation of the proteins expression levels were determined by a quantitative analysis software (multi Gauge 2.2, Steware Technology Inc.).

The test system of another data set is MMP-1. Described as above. The class given is cell-based, human. To be noted: 5 μM; UVB 40 mJ/cm^2; 48 hours. How it is done:
as §3, §4

This is an account of results in patent US9211244B2, “Method for anti-skin aging using caffeamide derivative” (CHINA MEDICAL UNIVERSITY, priority 2013, dated 2015).

Experimental for MMP-9: After incubating for 1 hour, the cells were irradiated by UV light (UVB with an intensity of 40 mJ/cm^2) for 15 seconds. […] After incubation in an incubator (37° C., 5% CO2) for 48 hours, the cells were collected.

In the case of `O=C(C=Cc1ccc(O)c(O)c1)NCCc1ccc(Br)cc1` [Compound of formula (2)], in the data set on p-JNK, the “expression level of p-JNK as compared to that of the untreated cells” value was 1.1 times. In addition, in the data set with p-ERK, the “expression level of p-ERK as compared to that of the untreated cells” value was 1.1 times. For the same compound, the “Concentration of ROS (times compared to the untreated cells)” value in data set [1] (5 μM) turned out to be 1.0 ± 0.09 times; in data set [1] (10 μM), 0.9 ± 0.02 times; in data set [1] (10 μM, listed as compound of formula (2)) it was 0.9 times; in data set [1] (25 μM) it was 0.8 ± 0.04 times; in data set [1] (25 μM, listed as compound of formula (2)), 0.8 times. Besides, the “Cell survival rate (%)” value is 92.0 ± 1.0% in data set [2] (5 μM), 90.4 ± 2.3% in data set [2] (10 μM), 89.7 ± 2.8% in data set [2] (25 μM) and 86.1 ± 1.4% in data set [2] (50 μM). For the same compound, the “activity of the tyrosinase in the cells” value at tyrosinase is “inhibited”. Moreover, in the data set with MMP-9, the “expression level of MMP-9 as compared to that of the untreated cells” value was determined as 0.7 times. The “expression level of MMP-3 as compared to that of the untreated cells” value in the data set with MMP-3 came to 1.0 times. In addition, the “expression level of MMP-1 as compared to that of the untreated cells” value in the data set with MMP-1 is recorded as 1.1 times.
